Marks after values point to notes of the source that are not given here.
What was measured:
[1] = human, in vivo
TrkB = TrkB (Homo sapiens, UniProt Q16620); settings: cited from earlier work
Sequence of TrkB (Q16620 32-822): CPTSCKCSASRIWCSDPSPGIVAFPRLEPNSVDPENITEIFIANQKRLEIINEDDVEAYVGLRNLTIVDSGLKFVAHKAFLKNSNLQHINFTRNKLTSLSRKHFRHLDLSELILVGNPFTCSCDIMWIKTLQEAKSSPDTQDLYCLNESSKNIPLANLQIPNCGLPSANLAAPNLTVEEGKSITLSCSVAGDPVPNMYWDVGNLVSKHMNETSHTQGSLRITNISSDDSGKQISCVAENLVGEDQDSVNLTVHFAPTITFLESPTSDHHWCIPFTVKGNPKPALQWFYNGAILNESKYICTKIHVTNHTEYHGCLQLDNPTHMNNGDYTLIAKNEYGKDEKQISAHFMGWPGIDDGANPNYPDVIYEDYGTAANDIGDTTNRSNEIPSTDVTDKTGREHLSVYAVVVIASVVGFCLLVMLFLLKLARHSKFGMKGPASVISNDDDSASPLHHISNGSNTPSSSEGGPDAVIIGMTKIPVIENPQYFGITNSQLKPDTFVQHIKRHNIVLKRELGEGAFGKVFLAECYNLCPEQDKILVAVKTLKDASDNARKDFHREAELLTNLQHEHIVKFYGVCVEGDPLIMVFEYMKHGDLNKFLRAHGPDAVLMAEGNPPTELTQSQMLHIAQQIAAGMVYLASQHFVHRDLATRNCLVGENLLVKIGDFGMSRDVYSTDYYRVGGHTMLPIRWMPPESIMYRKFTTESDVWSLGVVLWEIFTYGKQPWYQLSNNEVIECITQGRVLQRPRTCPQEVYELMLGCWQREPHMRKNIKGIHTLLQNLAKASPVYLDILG

## CN1CCN(c2ccc(C(=O)Nc3n[nH]c4ccc(Cc5cc(F)cc(F)c5)cc34)c(NC3CCOCC3)c2)CC1 [Entrectinib, N-[5-(3,5-difluorobenzyl)-1H-indazol-3-yl]-4-(4-methyl-piperazin-1-yl)-2-(tetrahydro-pyran-4-ylamino)-benzamide]
[1]; both
  Dyspnea, Grade ≥3: 6* %
  Fatal event: completed suicide: 0.3%
  Fatal event: dyspnea: 0.6%
  Fatal event: pneumonia: 0.6%
  Fatal event: sepsis: 0.6%
  Fatal event: tumor lysis syndrome: 0.3%
[1]
  Lung infection, Grade ≥3: 6* %
TrkB
  inhibition of TrkB tyrosine kinase: potent inhibitor

From patent US20220257592A1, “METHODS OF TREATING CANCER” (HOFFMANN-LA ROCHE INC., priority 2019, published 2022)
